Literature values as cited in patent US20220112625A1, “Diagnosing and Treating Neurological and Autoimmune Diseases by Optimizing Metabolic Responses” (priority 2017, published 2022).
Values belong to the compound of their own block, whether it stands above or below them.

Key:
[1] = biological target: PI3Kα (Homo sapiens, UniProt P42336); conditions: PI3Kγ versus PI3Kα
[2] = biological target: PI3Kβ (Homo sapiens, UniProt P42338); conditions: PI3Kγ versus PI3Kβ
[3] = biological target: PI3Kδ (Homo sapiens, UniProt O00329); conditions: PI3Kγ versus PI3Kδ
[4] = system: class I and class II PI3Ks
[5] = biological target: mTOR (Homo sapiens, UniProt P42345); conditions: up to at least about 10 μM

Chain of PI3Kβ (P42338 whole entry, species assumed): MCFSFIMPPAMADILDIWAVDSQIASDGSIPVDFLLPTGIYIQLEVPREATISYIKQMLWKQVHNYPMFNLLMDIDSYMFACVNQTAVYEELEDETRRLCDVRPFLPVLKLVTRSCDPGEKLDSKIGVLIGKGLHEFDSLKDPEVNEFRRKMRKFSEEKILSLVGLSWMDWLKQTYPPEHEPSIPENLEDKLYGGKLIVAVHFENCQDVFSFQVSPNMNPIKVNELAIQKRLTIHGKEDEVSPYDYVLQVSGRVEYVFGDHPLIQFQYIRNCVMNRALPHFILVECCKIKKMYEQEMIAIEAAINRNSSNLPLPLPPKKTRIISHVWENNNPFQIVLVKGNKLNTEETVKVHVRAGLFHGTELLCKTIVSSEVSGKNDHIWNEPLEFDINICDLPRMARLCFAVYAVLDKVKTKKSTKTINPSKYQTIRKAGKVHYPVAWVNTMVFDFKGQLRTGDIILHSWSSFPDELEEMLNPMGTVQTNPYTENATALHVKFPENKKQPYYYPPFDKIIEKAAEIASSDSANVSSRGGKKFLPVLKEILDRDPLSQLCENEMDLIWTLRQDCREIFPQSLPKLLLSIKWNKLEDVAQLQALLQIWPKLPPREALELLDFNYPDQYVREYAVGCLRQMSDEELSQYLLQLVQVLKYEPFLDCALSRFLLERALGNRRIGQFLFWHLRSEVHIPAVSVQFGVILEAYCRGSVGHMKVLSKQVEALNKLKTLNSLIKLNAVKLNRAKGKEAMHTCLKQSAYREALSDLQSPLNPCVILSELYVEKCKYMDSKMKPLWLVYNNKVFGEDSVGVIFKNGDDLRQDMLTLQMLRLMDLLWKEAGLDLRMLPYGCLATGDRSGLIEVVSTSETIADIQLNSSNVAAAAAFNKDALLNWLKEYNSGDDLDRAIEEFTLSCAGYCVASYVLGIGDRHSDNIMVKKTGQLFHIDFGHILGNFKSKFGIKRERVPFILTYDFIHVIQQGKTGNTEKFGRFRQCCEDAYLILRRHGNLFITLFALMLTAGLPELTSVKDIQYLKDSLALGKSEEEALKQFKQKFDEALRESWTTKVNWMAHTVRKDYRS
Chain of PI3Kβ (P27986 whole entry partner, species assumed): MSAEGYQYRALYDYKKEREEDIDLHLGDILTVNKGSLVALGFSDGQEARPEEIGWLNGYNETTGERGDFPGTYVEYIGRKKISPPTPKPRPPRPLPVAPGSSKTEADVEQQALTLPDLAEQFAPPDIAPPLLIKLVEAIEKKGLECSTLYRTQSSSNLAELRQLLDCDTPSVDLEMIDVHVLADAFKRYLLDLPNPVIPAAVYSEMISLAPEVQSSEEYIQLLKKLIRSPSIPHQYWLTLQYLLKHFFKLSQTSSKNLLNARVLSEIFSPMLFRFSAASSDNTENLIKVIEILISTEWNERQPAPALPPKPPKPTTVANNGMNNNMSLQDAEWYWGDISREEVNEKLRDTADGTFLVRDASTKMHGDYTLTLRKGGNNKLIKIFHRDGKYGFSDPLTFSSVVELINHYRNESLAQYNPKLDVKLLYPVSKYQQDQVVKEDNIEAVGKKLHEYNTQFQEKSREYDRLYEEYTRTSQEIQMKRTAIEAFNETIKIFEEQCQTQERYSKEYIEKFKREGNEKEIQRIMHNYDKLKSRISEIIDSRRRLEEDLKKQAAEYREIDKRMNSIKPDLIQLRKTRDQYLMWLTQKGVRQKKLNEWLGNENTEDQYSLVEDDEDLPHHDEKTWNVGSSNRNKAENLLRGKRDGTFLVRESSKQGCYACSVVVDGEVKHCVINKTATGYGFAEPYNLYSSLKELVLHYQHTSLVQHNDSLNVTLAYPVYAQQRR
Chain of PI3Kα (P42336 whole entry, species assumed): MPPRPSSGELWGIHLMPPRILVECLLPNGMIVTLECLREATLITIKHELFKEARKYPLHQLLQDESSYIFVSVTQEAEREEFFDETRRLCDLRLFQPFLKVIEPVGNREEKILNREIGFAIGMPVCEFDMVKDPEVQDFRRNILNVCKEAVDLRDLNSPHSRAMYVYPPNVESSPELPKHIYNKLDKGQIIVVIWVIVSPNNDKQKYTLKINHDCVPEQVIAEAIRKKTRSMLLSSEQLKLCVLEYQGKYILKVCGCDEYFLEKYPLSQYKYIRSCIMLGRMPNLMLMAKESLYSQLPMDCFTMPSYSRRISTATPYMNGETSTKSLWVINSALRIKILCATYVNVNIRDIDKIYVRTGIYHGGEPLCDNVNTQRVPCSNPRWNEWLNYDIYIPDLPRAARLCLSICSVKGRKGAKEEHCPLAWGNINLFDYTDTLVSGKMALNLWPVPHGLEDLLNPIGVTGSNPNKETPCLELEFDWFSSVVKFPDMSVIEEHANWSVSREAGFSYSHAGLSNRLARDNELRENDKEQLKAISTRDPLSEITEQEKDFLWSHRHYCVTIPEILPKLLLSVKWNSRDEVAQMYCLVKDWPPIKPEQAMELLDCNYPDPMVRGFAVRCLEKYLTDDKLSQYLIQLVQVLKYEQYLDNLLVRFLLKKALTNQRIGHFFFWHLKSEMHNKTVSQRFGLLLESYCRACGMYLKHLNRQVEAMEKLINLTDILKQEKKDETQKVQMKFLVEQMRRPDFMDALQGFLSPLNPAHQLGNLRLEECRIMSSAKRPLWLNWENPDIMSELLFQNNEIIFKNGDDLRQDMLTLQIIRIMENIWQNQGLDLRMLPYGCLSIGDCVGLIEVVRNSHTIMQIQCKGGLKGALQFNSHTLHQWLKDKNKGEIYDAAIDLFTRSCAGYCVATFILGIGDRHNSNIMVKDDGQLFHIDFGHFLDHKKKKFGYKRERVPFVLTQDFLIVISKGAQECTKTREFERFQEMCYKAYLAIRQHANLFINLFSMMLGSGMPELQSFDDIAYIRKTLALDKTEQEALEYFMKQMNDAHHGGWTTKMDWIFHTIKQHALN
Chain of PI3Kα (P27986 whole entry partner, species assumed): as the sequence (P27986 whole entry partner, species assumed) above
Chain of PI3Kδ (O00329 whole entry, species assumed): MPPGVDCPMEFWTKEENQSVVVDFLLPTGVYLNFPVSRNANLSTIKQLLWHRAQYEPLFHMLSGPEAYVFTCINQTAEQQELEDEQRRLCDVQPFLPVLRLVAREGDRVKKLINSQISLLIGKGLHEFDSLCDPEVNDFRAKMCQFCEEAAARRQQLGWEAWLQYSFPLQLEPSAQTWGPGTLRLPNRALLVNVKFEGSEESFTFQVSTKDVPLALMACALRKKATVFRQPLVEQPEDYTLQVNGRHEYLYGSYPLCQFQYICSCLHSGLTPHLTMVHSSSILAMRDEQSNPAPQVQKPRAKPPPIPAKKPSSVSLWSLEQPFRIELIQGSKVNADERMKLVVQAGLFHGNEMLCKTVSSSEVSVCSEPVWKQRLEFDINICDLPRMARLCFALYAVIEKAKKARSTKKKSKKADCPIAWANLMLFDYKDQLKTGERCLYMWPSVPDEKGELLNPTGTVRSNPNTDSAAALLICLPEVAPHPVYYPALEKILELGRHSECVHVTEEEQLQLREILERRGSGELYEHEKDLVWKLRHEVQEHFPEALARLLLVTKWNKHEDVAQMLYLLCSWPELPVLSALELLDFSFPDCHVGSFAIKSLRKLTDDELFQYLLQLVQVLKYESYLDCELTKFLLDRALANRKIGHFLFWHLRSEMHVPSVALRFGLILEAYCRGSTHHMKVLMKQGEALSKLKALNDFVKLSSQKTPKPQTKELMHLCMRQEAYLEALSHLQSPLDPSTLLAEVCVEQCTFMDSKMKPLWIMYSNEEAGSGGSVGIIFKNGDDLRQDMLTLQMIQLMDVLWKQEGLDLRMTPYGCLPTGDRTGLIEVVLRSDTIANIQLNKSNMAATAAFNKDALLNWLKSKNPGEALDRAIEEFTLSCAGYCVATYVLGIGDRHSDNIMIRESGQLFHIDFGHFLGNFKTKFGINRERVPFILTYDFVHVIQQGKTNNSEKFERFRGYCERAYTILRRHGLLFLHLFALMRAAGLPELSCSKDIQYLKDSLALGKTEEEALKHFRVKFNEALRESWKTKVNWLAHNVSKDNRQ
Chain of PI3Kδ (P27986 whole entry partner, species assumed): as the sequence (P27986 whole entry partner, species assumed) above

- selectivity over PI3Kα [1]: > 100 fold
- selectivity over PI3Kβ [2]: 10 fold
- selectivity over PI3Kδ [3]: > 100 fold
SMILES: CC(C)(C)NS(=O)(=O)c1cncc(-c2cc(F)c3nc(N)nn3c2)c1 [CZC24832, 5-(2-amino-8-fluoro [1,2,4]triazolo[1,5-a]pyridin-6-yl)-N-(1,1-dimethylethyl)-3-pyridinesulfonamide]

- effect on mTOR [5]: no effect
SMILES: C[C@@H]1COCCN1c1cc(=O)n2c(n1)N(Cc1cncc(Cl)c1)[C@H](C(F)(F)F)CC2 [SAR405, (8S)-9-[(5-chloro-3-pyridinyl)methyl]-6,7,8,9-tetrahydro-2-[(3R)-3-methyl-4-morpholinyl]-8-(trifluoromethyl)-4H-pyrimido[1,2-a]pyrimidin-4-one]
- effect on class I and class II PI3Ks ([4]; up to at least about 10 μM): no effect

SMILES: CC(C)(O)CNc1ncc(-c2ccnc(Nc3ccnc(Cl)c3)n2)c(CC2CC2)n1 [VPS34-IN1, 1-[[2-[(2-chloro-4-pyridinyl)amino]-4′-(cyclopropylmethyl)[4,5′-bipyrimidin]-2′-yl]amino]-2-methyl-2-Propanol]
- inhibition of the isoforms of class I as well as class II PI3Ks [4]: does not significantly inhibit
